Assay results as given in patent US9260395B2, “Inhibitors of viral replication, their process of preparation and their therapeutical uses” (priority 2012, dated 2016).

System: NL4-3 strain of HIV-1
Test: Cyto-protection (CellTiter-Glo viability) assay of MT4 cells infected with NL4-3 virus; inhibition of HIV replication
Assay type: cell-based
Conditions: Human immunodeficiency virus 1, NL43, 120 h; concentration leading to 50% of cyto-protection; MT4 cells infected with NL4-3 virus; 5 days incubation; CellTiter-Glo; read-out: EC50
Method: Preparation of Virus stock of the NL4-3 strain of HIV-1 (Adachi et al, J Virol, 1986, 59(2):284-91).
The virus was prepared as described in Lopez et al (Lopez et al, Proc Natl Acad Sci USA., 2006, 103(40):14947-52, by transfecting 2×10^6 293 T cells (CRL-1573, ATCC) with following modifications: 6 μg of NL4-3 proviral DNA molecular clone were mixed with Fugene 6 transfection reagent from Roche, and used according to manufacturer's instructions. Forty eight hours later, transfected cell supernatants were harvested, filtered through 0.45-μm-pore-size filters, quantified for HIV-1 p24 antigen by using a Innotest HIV antigen mAb assay (Ingen) according to manufacturer's instructions, and used in infection experiments.
Serial dilutions of compounds to be tested were prepared in complete RPMI medium from 10 mM DMSO stock solutions, and I in 96 well Falcon 353072 Microtest[…]distributed in a volume of 20™ tissue culture plate, in order to get 0.5% DMSO final concentration in each well, after the addition of infected cells. Control wells contained also 0.5% DMSO final concentration but no compound.
MT4 cells (from the NIH AIDS Research and Reference Reagent Program) in RPMI complete medium were counted (10×10^6 cells per well in Falcon 353047 Multiwell™ 24 well) and infected for 2 hours at 37°, at a multiplicity of infection (moi) of 0.0001-0.00001. Cells were then centrifuged 3 min at 3000 rpm, and washed two times in 1 ml PBS to remove viruses that have not entered in cells. Infected cells were resuspended in complete RPMI at 1.25×10^6 cells/ml and 80 μl of infected cells were distributed in each well containing compound to be tested or control wells. The plates were then incubated at 37° for 5 days.
Assay used to measure the inhibition of HIV replication by the compounds (according to Gregg S. Jones et al., Antimicrobial Agents and Chemotherapy, 2009, 53 (3): 1194-1203).
After 5 days of incubation, microplates were equilibrated to room temperature for 30 mn and then 50 μl of CellTiter-Glo reagent (Promega Biosciences, Inc., Madison Wis., USA) were added to each well. Cell lysis was carried out at room temperature during 10 min, 150μl of lysates were transferred in Packard Optiplate 96 well, and luminescence was read on a Fluoroskan (Thermo Scientific).
The EC50, or effective concentration 50, is the concentration of compound leading to 50% of cyto-protection in a Cell-Titer-Glo® viability assay based on MT4 cells infected with NL4-3 virus (table 1).

Cn1nc(C2=CCCCC2)c(-c2ccc3c(c2)CCCO3)c1C(OC(C)(C)C)C(=O)O (stereo not drawn) [Example 13, 2-(tert-butoxy)-2-[3-(cyclohex-1-en-1-yl)-4-(3,4-dihydro-2H-1-benzopyran-6-yl)-1-methyl-1H-pyrazol-5-yl]acetic acid] showed an EC50 of 170 nM.

In the case of Cn1nc(-c2ccsc2)c(-c2ccc3c(c2)CCCO3)c1C(OC(C)(C)C)C(=O)O (stereo not drawn) [Example 4, 2-(tert-butoxy)-2-[4-(3,4-dihydro-2H-1-benzopyran-6-yl)-1-methyl-3-(thiophen-3-yl)-1H-pyrazol-5-yl]acetic acid], the EC50 is reported as 280 nM.

For CC1C=C(c2nn(C)c(C(OC(C)(C)C)C(=O)O)c2-c2ccc3c(c2)CCCO3)CCC1 (stereo not drawn) [Example 17, 2-(tert-butoxy)-2-[4-(3,4-dihydro-2H-1-benzopyran-6-yl)-1-methyl-3-(3-methylcyclohex-1-en-1-yl)-1H-pyrazol-5-yl]acetic acid], the EC50 was 740 nM.

C=C(c1nn(C)c(C(OC(C)(C)C)C(=O)O)c1-c1ccc2c(c1)CCCO2)C1CCCC1 (stereo not drawn) [Example 23, 2-(tert-butoxy)-2-[3-(1-cyclopentylethenyl)-4-(3,4-dihydro-2H-1-benzopyran-6-yl)-1-methyl-1H-pyrazol-5-yl]acetic acid] showed an EC50 of 2000 nM.

Cn1nc(/C=C/C2CC2)c(-c2ccc3c(c2)CCCO3)c1C(OC(C)(C)C)C(=O)O (stereo not drawn) [Example 27, 2-(tert-butoxy)-2-{3-[(E)-2-cyclopropylethenyl]-4-(3,4-dihydro-2H-1-benzopyran-6-yl)-1-methyl-1H-pyrazol-5-yl}acetic acid] gave an EC50 of 5300 nM.

Cn1nc(C2CCCCC2)c(-c2ccc3c(c2)CCCO3)c1C(OC(C)(C)C)C(=O)O (stereo not drawn) [Example 20, 2-(tert-butoxy)-2-[3-cyclohexyl-4-(3,4-dihydro-2H-1-benzopyran-6-yl)-1-methyl-1H-pyrazol-5-yl]acetic acid] was tested, and the EC50 was 1400 nM.

Cn1nc(-c2cccs2)c(-c2cc(F)c3c(c2)CCCO3)c1C(OC(C)(C)C)C(=O)O (stereo not drawn) [Example 42, 2-(tert-butoxy)-2-[4-(8-fluoro-3,4-dihydro-2H-1-benzopyran-6-yl)-1-methyl-3-(thiophen-2-yl)-1H-pyrazol-5-yl]acetic acid] gave an EC50 of 1800 nM.

In the case of Cn1nc(C2=CCCC2)c(-c2ccc3c(c2)CCCO3)c1C(OC(C)(C)C)C(=O)O (stereo not drawn) [Example 12, 2-(tert-butoxy)-2-[3-(cyclopent-1-en-1-yl)-4-(3,4-dihydro-2H-1-benzopyran-6-yl)-1-methyl-1H-pyrazol-5-yl]acetic acid], the EC50 is reported as 240 nM.

For Cn1nc(-c2ccc(Cl)s2)c(-c2ccc3c(c2)CCCO3)c1C(OC(C)(C)C)C(=O)O (stereo not drawn) [Example 36, 2-(tert-butoxy)-2-[3-(5-chlorothiophen-2-yl)-4-(3,4-dihydro-2H-1-benzopyran-6-yl)-1-methyl-1H-pyrazol-5-yl]acetic acid], the EC50 was 2700 nM.

With Cn1nc(-c2ccsc2)c(C2=CCC(C)(C)CC2)c1C(OC(C)(C)C)C(=O)O (stereo not drawn) [Example 5, 2-(tert-butoxy)-2-[4-(4,4-dimethylcyclohex-1-en-1-yl)-1-methyl-3-(thiophen-3-yl)-1H-pyrazol-5-yl]acetic acid] the EC50 was 270 nM.

Compound CC(C)C1CC=C(c2c(-c3ccccc3)nn(C)c2C(OC(C)(C)C)C(=O)O)CC1 (stereo not drawn) [Example 41, 2-(tert-butoxy)-2-{1-methyl-3-phenyl-4-[4-(propan-2-yl)cyclohex-1-en-1-yl]-1H-pyrazol-5-yl}acetic acid] has an EC50 of 6000 nM.

With Cn1nc(C2=CC(O)CCC2)c(-c2ccc3c(c2)CCCO3)c1C(OC(C)(C)C)C(=O)O (stereo not drawn) [Example 43, 2-(tert-butoxy)-2-[4-(3,4-dihydro-2H-1-benzopyran-6-yl)-3-(3-hydroxycyclohex-1-en-1-yl)-1-methyl-1H-pyrazol-5-yl]acetic acid] the EC50 was 9200 nM.

Work on Cn1nc(-c2csc3ccccc23)c(-c2ccc3c(c2)CCCO3)c1C(OC(C)(C)C)C(=O)O (stereo not drawn) [Example 38, 2-[3-benzo[b]thiophen-3-yl-4-(3,4-dihydro-2H-1-benzopyran-6-yl)-1-methyl-1H-pyrazol-5-yl]-2-(tert-butoxy)acetic acid] yielded an EC50 of 2200 nM.

In the case of CCCc1cc(-c2nn(C)c(C(OC(C)(C)C)C(=O)O)c2-c2ccc3c(c2)CCCO3)cs1 (stereo not drawn) [Example 11, 2-(tert-butoxy)-2-[4-(3,4-dihydro-2H-1-benzopyran-6-yl)-1-methyl-3-(5-propylthiophen-3-yl)-1H-pyrazol-5-yl]acetic acid], the EC50 is reported as 830 nM.

With Cn1nc(C2=CCCC2(C)C)c(-c2ccc3c(c2)CCCO3)c1C(OC(C)(C)C)C(=O)O (stereo not drawn) [Example 32, 2-(tert-butoxy)-2-[4-(3,4-dihydro-2H-1-benzopyran-6-yl)-3-(5,5-dimethylcyclopent-1-en-1-yl)-1-methyl-1H-pyrazol-5-yl]acetic acid] the EC50 was 3200 nM.

With CC1CC=C(c2nn(C)c(C(OC(C)(C)C)C(=O)O)c2-c2ccc3c(c2)CCCO3)CC1 (stereo not drawn) [Example 31, 2-(tert-butoxy)-2-[4-(3,4-dihydro-2H-1-benzopyran-6-yl)-1-methyl-3-(4-methylcyclohex-1-en-1-yl)-1H-pyrazol-5-yl]acetic acid] the EC50 was 3800 nM.

In the case of Cn1nc(C2CCCC2)c(-c2ccc3c(c2)CCCO3)c1C(OC(C)(C)C)C(=O)O (stereo not drawn) [Example 19, 2-(tert-butoxy)-2-[3-cyclopentyl-4-(3,4-dihydro-2H-1-benzopyran-6-yl)-1-methyl-1H-pyrazol-5-yl]acetic acid], the EC50 is reported as 3900 nM.

In the case of Cn1nc(C2=CCC(C)(C)CC2)c(-c2ccc3c(c2)CCCO3)c1C(OC(C)(C)C)C(=O)O (stereo not drawn) [Example 14, 2-(tert-butoxy)-2-[4-(3,4-dihydro-2H-1-benzopyran-6-yl)-3-(4,4-dimethylcyclohex-1-en-1-yl)-1-methyl-1H-pyrazol-5-yl]acetic acid], the EC50 is reported as 1700 nM.

In the case of CCCc1nn(C)c(C(OC(C)(C)C)C(=O)O)c1-c1ccc2c(c1)CCCO2 (stereo not drawn) [Example 30, 2-(tert-butoxy)-2-[4-(3,4-dihydro-2H-1-benzopyran-6-yl)-1-methyl-3-propyl-1H-pyrazol-5-yl]acetic acid], the EC50 is reported as 32000 nM.

In the case of C=C(C)c1nn(C)c(C(OC(C)(C)C)C(=O)O)c1-c1ccc2c(c1)CCCO2 (stereo not drawn) [Example 22, 2-(tert-butoxy)-2-[4-(3,4-dihydro-2H-1-benzopyran-6-yl)-1-methyl-3-(prop-1-en-2-yl)-1H-pyrazol-5-yl]acetic acid], the EC50 is reported as 8000 nM.

With Cn1nc(-c2cc3c(s2)CCC3)c(-c2ccc3c(c2)CCCO3)c1C(OC(C)(C)C)C(=O)O (stereo not drawn) [Example 37, 2-(tert-butoxy)-2-(3-{4H,5H,6H-cyclopenta[b]thiophen-2-yl}-4-(3,4-dihydro-2H-1-benzopyran-6-yl)-1-methyl-1H-pyrazol-5-yl)acetic acid] the EC50 was 3300 nM.

Cn1nc(-c2nccs2)c(-c2ccc3c(c2)CCCO3)c1C(OC(C)(C)C)C(=O)O (stereo not drawn) [Example 8, 2-(tert-butoxy)-2-[4-(3,4-dihydro-2H-1-benzopyran-6-yl)-1-methyl-3-(1,3-thiazol-2-yl)-1H-pyrazol-5-yl]acetic acid] was tested, and the EC50 was 3700 nM.

With Cn1nc(-c2ccccc2)c(C2=CCC(C)(C)CC2)c1C(OC(C)(C)C)C(=O)O (stereo not drawn) [Example 1, 2-(tert-butoxy)-2-[4-(4,4-dimethylcyclohex-1-en-1-yl)-1-methyl-3-phenyl-1H-pyrazol-5-yl]acetic acid] the EC50 was 480 nM.

With CC1CCCC=C1c1nn(C)c(C(OC(C)(C)C)C(=O)O)c1-c1ccc2c(c1)CCCO2 (stereo not drawn) [Example 18, 2-(tert-butoxy)-2-[4-(3,4-dihydro-2H-1-benzopyran-6-yl)-1-methyl-3-(6-methylcyclohex-1-en-1-yl)-1H-pyrazol-5-yl]acetic acid] the EC50 was 500 nM.

In the case of Cn1nc(C2=CCCCCC2)c(-c2ccc3c(c2)CCCO3)c1C(OC(C)(C)C)C(=O)O (stereo not drawn) [Example 16, 2-(tert-butoxy)-2-[3-(cyclohept-1-en-1-yl)-4-(3,4-dihydro-2H-1-benzopyran-6-yl)-1-methyl-1H-pyrazol-5-yl]acetic acid], the EC50 is reported as 870 nM.

Compound Cn1nc(-c2ccncc2)c(C2=CCC(C)(C)CC2)c1C(OC(C)(C)C)C(=O)O (stereo not drawn) [Example 39, 2-(tert-butoxy)-2-[4-(4,4-dimethylcyclohex-1-en-1-yl)-1-methyl-3-(pyridin-4-yl)-1H-pyrazol-5-yl]acetic acid] has an EC50 of 5700 nM.

For Cc1c(-c2c(-c3cccs3)nn(C)c2C(OC(C)(C)C)C(=O)O)ccc2c1CCCO2 (stereo not drawn) [Example 7, 2-(tert-butoxy)-2-[1-methyl-4-(5-methyl-3,4-dihydro-2H-1-benzopyran-6-yl)-3-(thiophen-2-yl)-1H-pyrazol-5-yl]acetic acid], the EC50 was 410 nM.
